What all share (assay type): cell-based
Data set [1] deals with Yap1 mRNA. The experiment in a line: Dose-dependent inhibition of human Yap1 in A-431 cells (Example 7, 10,000 cells per well, RTS36584). Particulars: free uptake. How it is done:
Modified oligonucleotides described in the studies above were tested at various doses in A-431 cells. Cultured A-431 cells at a density of 10,000 cells per well were treated using free uptake with modified oligonucleotides diluted to concentrations described in the tables below. After approximately 48 hours, Yap1 mRNA levels were measured as previously described using the Human Yap1 primer-probe set RTS36584. Yap1 mRNA levels were normalized to total RNA content, as measured by RIBOGREEN®. Results are presented in the tables below as percent control of the amount of Yap1 mRNA relative to untreated control cells (% UTC). IC50s were calculated using a linear regression on a log/linear plot of the data in excel.

The test system of data set [2] is Yap1 mRNA. Description: Antisense inhibition of human Yap1 in A-431 cells by cEt gapmers, single dose (Example 3, RTS36584). The conditions noted are these: Table 28; Yap1 mRNA as percent of untreated control; 3-10-3 cEt gapmers targeting SEQ ID NO.: 1, and 2. The gist of the method: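 A-431 cells (5,000/well) took up the 3-10-3 cEt gapmers by free uptake at 2,000 nM for about 48 h. Yap1 mRNA was measured by RT-qPCR with primer probe set RTS36584, normalized to RiboGreen total RNA, and given as % of untreated control.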

The test system of data set [3] is Yap1 mRNA. Description: Dose-dependent inhibition of human Yap1 in A-431 cells (Example 8, 10,000 cells per well, RTS4814). The conditions noted are these: free uptake, approximately 48 hours, RTS4814; for Yap1 mRNA, % UTC: A-431 cells, 10,000 cells per well. The method in brief: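 Yap1 mRNA, normalized to RIBOGREEN total RNA and expressed as % untreated control, was read with RTS4814 about 48 h after free-uptake oligonucleotide treatment of A-431 cells at 10,000 cells/well. IC50 derived by linear regression of log/linear data.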

The subject of data set [4] is Yap1 mRNA. Description: Dose-dependent inhibition of human Yap1 in SNU-449 cells (Example 9, RTS36584). Particulars: free uptake; for % UTC (Yap1 mRNA): approximately 48 hours. The gist of the method:
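Read-out was Yap1 mRNA (primer-probe RTS36584) normalised to total RNA by RIBOGREEN, given as % of untreated cells, with IC50 fitted by linear regression of log/linear data. Oligonucleotides were dosed by free uptake to SNU-449 cells, 10,000/well, for ~48 h.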

[5] abbreviates: Table 58, 15.6 nM, A-431 cells 10,000 cells per well, 48 hours.
[6] abbreviates: Table 58, 62.5 nM, A-431 cells 10,000 cells per well, 48 hours.
The mark [7] stands for this setting: Table 58, 4000.00 nM, A-431 cells 10,000 cells per well, 48 hours.
Setting [8] is: Table 58, A-431 cells 10,000 cells per well.
Where [9] appears, read: Table 60, 15.6 nM, A-431 cells 10,000 cells per well, 48 hours.
Where [10] appears, read: Table 60, 62.5 nM, A-431 cells 10,000 cells per well, 48 hours.
[11] abbreviates: Table 60, 4000.00 nM, A-431 cells 10,000 cells per well, 48 hours.
Setting [12] is: Table 60, A-431 cells 10,000 cells per well.

Strand notation (5' to 3'): a small letter for the sugar, then the base; units joined by * are phosphorothioate-linked, units joined directly phosphodiester-linked; [ ] holds rarer units or linkages, { } end groups; capitals alone tell only the bases. k = constrained ethyl (cEt); [5mC] = 5-methylcytosine; d = 2'-deoxy (DNA) A value given as a limit tells only on which side of the number the result lay.

In general, IC50 refers to the point on the concentration scale where inhibition reaches its midpoint. In the case of “958472 (kT*k[5mC]*k[5mC]*dT*dT*dA*dG*dA*dT*d[5mC]*d[5mC]*dT*dT*k[5mC]*kA*k[5mC]; antisense) [compound 958472]”, the results for the “Yap1 mRNA, % UTC” value in the data set with Yap1 mRNA [1] (setting [5]), in the data set on Yap1 mRNA [1] (setting [6]) and in the data set on Yap1 mRNA [1] (setting [7]) were 92 % UTC, 63 % UTC and 23 % UTC, respectively. In addition, in the data set on Yap1 mRNA [1] (setting [8]), it took 200 nM to reach half-maximal inhibition (IC50).
For the substance “958474 (kG*kT*kG*dT*d[5mC]*dT*d[5mC]*d[5mC]*dT*dT*dA*dG*dA*kT*k[5mC]*k[5mC]; antisense) [compound 958474]”, the “Yap1 mRNA, % UTC” value in the data set with Yap1 mRNA [1] (Table 61, 15.6 nM, A-431 cells 10,000 cells per well, 48 hours) was found to be 63 % UTC; with Yap1 mRNA [1] (Table 61, 62.5 nM, A-431 cells 10,000 cells per well, 48 hours), 37 % UTC; with Yap1 mRNA [1] (Table 61, 4000.00 nM, A-431 cells 10,000 cells per well, 48 hours), 11 % UTC. Inhibition with Yap1 mRNA [1] (Table 61, A-431 cells 10,000 cells per well) was half-maximal at 30 nM (IC50).
As for “958623 (kT*kT*kG*dA*dT*dA*dT*dT*d[5mC]*d[5mC]*dG*d[5mC]*dA*kT*kT*kG; antisense) [compound 958623]”, the “Yap1 mRNA, % UTC” value in the data set on Yap1 mRNA [1] (Table 59, 15.6 nM, A-431 cells 10,000 cells per well, 48 hours) was 100 % UTC; in the data set on Yap1 mRNA [1] (Table 59, 62.5 nM, A-431 cells 10,000 cells per well, 48 hours) it was 62 % UTC; in the data set with Yap1 mRNA [1] (Table 59, 4000.00 nM, A-431 cells 10,000 cells per well, 48 hours), 10 % UTC. In the data set on Yap1 mRNA [1] (Table 59, A-431 cells 10,000 cells per well), this substance yielded an IC50 of 100 nM.
On to “958585 (k[5mC]*kT*k[5mC]*dT*dA*dT*d[5mC]*dA*dA*dG*dG*dT*d[5mC]*k[5mC]*k[5mC]*k[5mC]; antisense) [compound 958585]”, for which the “Yap1 mRNA, % UTC” value in the data set on Yap1 mRNA [1] (15.6 nM, A-431 cells, 10,000 cells per well, approximately 48 hours) is 95 % UTC; in the data set with Yap1 mRNA [1] (62.5 nM, A-431 cells, 10,000 cells per well, approximately 48 hours), 71 % UTC; in the data set with Yap1 mRNA [1] (4000.00 nM, A-431 cells, 10,000 cells per well, approximately 48 hours) it was 17 % UTC. In the data set with Yap1 mRNA [1] (A-431 cells, approximately 48 hours, linear regression on log/linear plot), this substance showed an IC50 of 200 nM.
As for “958568 (kT*kA*kT*dG*dA*dG*dT*dG*dA*dT*d[5mC]*dA*dA*k[5mC]*k[5mC]*kT; antisense) [compound 958568]”, the “Yap1 mRNA, % UTC” value in the data set with Yap1 mRNA [1] (setting [9]) is recorded as 88 % UTC; in the data set with Yap1 mRNA [1] (setting [10]) it was 65 % UTC; in the data set with Yap1 mRNA [1] (setting [11]), 21 % UTC. Moreover, in the data set with Yap1 mRNA [1] (setting [12]), 100 nM corresponded to half-maximal inhibition (IC50).
“1074798 (kG*k[5mC]*kT*dT*dT*dG*dG*dA*dA*dG*dA*dT*d[5mC]*kT*kG*kA) [compound 1074798]”: the “YAP1 (% UTC)” value in the data set on Yap1 mRNA [2] was found to be 4 % UTC. For the same substance, the “Yap1 mRNA, % UTC” value is 34 % UTC in the data set on Yap1 mRNA [3] (31.3 nM), 12 % UTC with Yap1 mRNA [3] (125.0 nM), 5 % UTC in the data set on Yap1 mRNA [3] (500.0 nM) and 6 % UTC in the data set on Yap1 mRNA [3] (2000.00 nM). Moreover, the IC50 with Yap1 mRNA [3] (A-431 cells, linear regression on log/linear plot) was below 20 nM; in the data set with Yap1 mRNA [4] (linear regression on a log/linear plot), 100 nM. Also, the “% UTC (Yap1 mRNA)” value in the data set on Yap1 mRNA [4] (31.3 nM) amounted to 62 % UTC; with Yap1 mRNA [4] (125.0 nM), 38 % UTC; in the data set with Yap1 mRNA [4] (500.0 nM) it was 17 % UTC; with Yap1 mRNA [4] (2000.00 nM), 8 % UTC.
Turning to “958537 (k[5mC]*kA*kG*dG*dG*dT*d[5mC]*dA*dA*dT*dT*dT*dT*k[5mC]*kA*kG; antisense) [compound 958537]”, the “Yap1 mRNA, % UTC” value with Yap1 mRNA [1] (setting [5]) came to 100 % UTC; in the data set with Yap1 mRNA [1] (setting [6]), 56 % UTC; in the data set on Yap1 mRNA [1] (setting [7]) it was 11 % UTC. For the same substance, the IC50 with Yap1 mRNA [1] (setting [8]) worked out at 100 nM.
In the case of “958558 (kT*kT*k[5mC]*dA*d[5mC]*dA*dA*d[5mC]*d[5mC]*dA*dA*d[5mC]*dT*kA*kT*kT; antisense) [compound 958558]”, the results for the “Yap1 mRNA, % UTC” value in the data set with Yap1 mRNA [1] (setting [9]), in the data set with Yap1 mRNA [1] (setting [10]) and with Yap1 mRNA [1] (setting [11]) were 84 % UTC, 83 % UTC and 35 % UTC, respectively. In the data set with Yap1 mRNA [1] (setting [12]), this substance returned an IC50 of 500 nM.

The values above are taken from patent publication US11214803B2, “Modulators of YAP1 expression” (Ionis Pharmaceuticals, Inc., priority 2019, dated 2022).
